From patent US10039776B2, “Hepato-protective beverage composition” (priority 2013, dated 2018)

What was measured:
[1] = system: Male Wistar albino rats, alcohol induced sub-acute hepatotoxicity; assay: Alcohol induced sub-acute hepatotoxicity in rats: evaluation of hepato-protective activity (% protection, % synergism); type: in vivo
Text: • 1. Hepato-protection: the ability to reduce stress and prevent damage to the liver. • 2. Synergistic hepato-protective effect: where the net hepato-protective effect of a combination is greater than the sum of the hepato-protective effects of the parts. • 3. Primary hepato-protective agent; 18α-Glycyrrhizin, 18β-Glycyrrhizin, or a combination thereof. • 4. Complimentary hepato-protective agent: sugar, sugar alcohol, or a combination thereof. • 5. Effective amount: the amount of each hepato-protective agent that must be included in a beverage to result in a net hepato-protective synergistic effect. Effective amounts include: • a. For 18α-Glycyrrhizin, a mass concentration range of 0.04% to 1.0%. • b. For 18β-Glycyrrhizin, a mass concentration range of 0.04% to 1.0%. • c. For sugar, a mass concentration range of 0.5% to 3.5%. • d. For sugar alcohol, a mass concentration range of 0.5% to 3.5%. • 6. Effective proportion: the proportional amount of how many units of complimentary hepato-protective agent should be added per unit of primary hepato-protective agent to result in a hepato-protective synergistic effect. An effective proportion is in the range of 1:2 to 175:2 (units of complimentary hepato-protective agent to units of primary hepato-protective agent). […] All animal experiments were conducted for a period of one month by per oral administration of 2.5 g/kg dose of alcohol.
The following tables 10 and 11 further illustrate hepatoprotective activity of the supplied alcoholic formulations in comparison with standard alcoholic drink in rat model, when fed orally for 4 weeks and also illustrate any synergistic effect of the ingredients. Hepatoprotection (HP) Calculation % Protection=1−[(T-NS)/(AL-NS)]×100 T=Mean value of drug treated, NS=Mean value of normal control, AL=Mean value of alcohol alone
Distilled ethanol was obtained from Bengal Chemicals, West Bengal, India, Biochemical kits like AST, ALT, ALKP and total protein were obtained from Span Diagnostics Ltd. Surat, India. Time course study of oxidative and nitrosative stress and antioxidant enzymes in K2Cr2O7-induced nephrotoxicity. BMC Nephrol., 6:4], TNF-α was estimated by standard procedures as mentioned in Rat TNF-α ELIS A kit (BioLegend, Inc. San Diego, Calif. USA).
Male Wistar albino rats weighing 150-200 g are procured from local registered traders (CPCSEA Regd No. 1443/po/6/4/CPCSEA), Kolkata, India, and were acclimatized for 7 days at standard housing condition (26° C.±2° C., 60-70% RFT with 12±1 hours light and dark cycle). Animals were fed with commercially available diet (Upton India Pvt. Ltd, India) and water ad-libitum during the experiment period.
Male Wistar albino rats weighing 150-200 g are procured and randomly divided into groups consisting of six animals in each group. Sub-acute toxicity is induced by alcohol in rats by oral administration of 25% alcohol (2.5 gm/kg/day, p.o.) for 28 days and this group served as the negative control and the positive control group received distilled water only.
All drug solutions were prepared in 15-40% aqueous alcohol, adjusting the pH in the range of 4.0-9.0 for evaluation of hepato-protective activity. This solution is further diluted with distilled water to obtain 25% aqueous alcoholic solution and administered orally by gavage to different rats group of step (a).
On day 28th day the animals are anaesthetized with ether and blood samples are collected by cardiac puncture and the serum is used for the assay of marker enzymes serum alanine aminotransferase (ALT), aspartate aminotransferase (AS′T), alkaline phosphatase (ALP). The rats are sacrificed by exposure to an overdose of ether, immediately after the collection of blood; their livers are removed, washed in cold saline. Part of the liver is used for preparation of liver homogenate in phosphate buffer (pH 7.4). […]

[2] = system: superoxide dismutase (SOD); settings: erythritol-added group; cited from earlier work
[3] = cited from earlier work
[4] = sugar alcohol or sugar alone at 1%, alcohol 2.5 g/kg p.o. one month
[5] = sugar alcohol or sugar alone at 2.5%, alcohol 2.5 g/kg p.o. one month

Molecule	ALT etc % Prot. [1, 4]	GSH % Prot. [1, 4]	MDA % Prot. [1, 4]	SOD etc % Prot. [1, 4]	TNF-α % Prot. [1, 4]	ALT etc % Prot. [1, 5]	GSH % Prot. [1, 5]	MDA % Prot. [1, 5]	SOD etc % Prot. [1, 5]	TNF-α % Prot. [1, 5]	further results
18β-Glycyrrhizin [Sample Code D]											TNF-α % Prot. ([1]; alcohol 2.5 g/kg/day p.o. 28 days, composition fixed by sample/example, listed as Example 4): 7.64%; GSH % Prot. ([1]; alcohol 2.5 g/kg/day p.o. 28 days, liver homogenate, composition fixed by sample/example, listed as Example 4): 3.29%; MDA % Prot. ([1]; hepatic MDA, alcohol 2.5 g/kg/day p.o. 28 days, composition fixed by sample/example, listed as Example 4): 15.97%; SOD etc % Prot. ([1]; mean of SOD, CAT and GPx, alcohol 2.5 g/kg/day p.o. 28 days, composition fixed by sample/example, listed as Example 4): 11.45%; ALT etc % Prot. ([1]; mean of serum ALT, AST and ALKP, alcohol 2.5 g/kg/day p.o. 28 days, composition fixed by sample/example, listed as Example 4): 8.38%
OC[C@@H](O)[C@@H](O)CO [Ery, D-Erythritol]	17.84%	18.71%	24.71%	17.94%	16.57%	32.13%	37.29%	48.61%	36.29%	35.96%	
OC[C@H]1O[C@@H](O[C@H]2[C@H](O)[C@@H](O)C(O)O[C@@H]2CO)[C@H](O)[C@@H](O)[C@H]1O (stereo partly drawn) [Lac, Lactose]	8.21%	4.36%	7.70%	6.78%	8.19%	17.41%		21.47%	17.38%	15.26%	
OC[C@@H](O)[C@@H](O)[C@H](O)[C@H](O)CO [Sample Code A, D-Mannitol]											TNF-α % Prot. ([1]; alcohol 2.5 g/kg/day p.o. 28 days, composition fixed by sample/example, listed as Example 2): 7.19%; GSH % Prot. ([1]; alcohol 2.5 g/kg/day p.o. 28 days, liver homogenate, composition fixed by sample/example, listed as Example 2): 10.35%; MDA % Prot. ([1]; hepatic MDA, alcohol 2.5 g/kg/day p.o. 28 days, composition fixed by sample/example, listed as Example 2): 19.17%; SOD etc % Prot. ([1]; mean of SOD, CAT and GPx, alcohol 2.5 g/kg/day p.o. 28 days, composition fixed by sample/example, listed as Example 2): 12.71%; ALT etc % Prot. ([1]; mean of serum ALT, AST and ALKP, alcohol 2.5 g/kg/day p.o. 28 days, composition fixed by sample/example, listed as Example 2): 12.26%
OC[C@@H](O)[C@@H](O)[C@H](O)[C@H](O)CO [Sample Code C, D-Mannitol]											TNF-α % Prot. ([1]; alcohol 2.5 g/kg/day p.o. 28 days, composition fixed by sample/example, listed as 3): 16.74%; TNF-α % Prot. ([1]; alcohol 2.5 g/kg/day p.o. 28 days, composition fixed by sample/example, listed as Example 3): 31.46%; GSH % Prot. ([1]; alcohol 2.5 g/kg/day p.o. 28 days, liver homogenate, composition fixed by sample/example, listed as 3): 20.06%; GSH % Prot. ([1]; alcohol 2.5 g/kg/day p.o. 28 days, liver homogenate, composition fixed by sample/example, listed as Example 3): 31.53%; MDA % Prot. ([1]; hepatic MDA, alcohol 2.5 g/kg/day p.o. 28 days, composition fixed by sample/example, listed as 3): 31.63%; MDA % Prot. ([1]; hepatic MDA, alcohol 2.5 g/kg/day p.o. 28 days, composition fixed by sample/example, listed as Example 3): 50.80%; SOD etc % Prot. ([1]; mean of SOD, CAT and GPx, alcohol 2.5 g/kg/day p.o. 28 days, composition fixed by sample/example, listed as 3): 19.32%; SOD etc % Prot. ([1]; mean of SOD, CAT and GPx, alcohol 2.5 g/kg/day p.o. 28 days, composition fixed by sample/example, listed as Example 3): 35.83%; ALT etc % Prot. ([1]; mean of serum ALT, AST and ALKP, alcohol 2.5 g/kg/day p.o. 28 days, composition fixed by sample/example, listed as 3): 70.37%; ALT etc % Prot. ([1]; mean of serum ALT, AST and ALKP, alcohol 2.5 g/kg/day p.o. 28 days, composition fixed by sample/example, listed as Example 3): 29.71%
OC[C@H]1O[C@@](CO)(O[C@H]2O[C@H](CO)[C@@H](O)[C@H](O)[C@H]2O)[C@@H](O)[C@@H]1O [Suc, Sucrose]	6.70%	6%	8.27%	5.16%	6.13%	13.89%	11.63%	18.92%	10.49%	14.18%	
OC[C@@H](O)[C@H](O)[C@@H](O)CO [Xyl, D-Xylitol]	17.62%	19.76%	26.9%	18.91%	15.77%	26.72%	35.57%	45.38%	36.88%	30.05%	
O=C[C@H](O)[C@@H](O)[C@H](O)CO [Xyls, Xylose]	8.06%	6.23%	6.28%	7.83%	6.44%	14.73%	11.84%	15.38%	19.1%	13.98%	
OC[C@@H](O)[C@@H](O)CO [erythritol]											increase of SOD activity [2]: 2-5 times
CCO [ethanol]											time to peak blood alcohol concentration ([3]; fasting state): ≤ 30 min; ingested alcohol degraded to acetaldehyde ([3]; human being): 95%; ingested alcohol excreted unchanged ([3]; human being): 5%; share of alcohol metabolism accounted for by liver ([3]; in vivo): ~90%; alcohol metabolized per hour ([3]; typical adult, printed 'g of alcohol, hour'): 7 to 10 g
